Earlier results, collected in patent US12297406B2, “Method for preparing a composition comprising cetylated fatty acids” (ALESCO S.R.L., priority 2019, dated 2025).

Settings: European Union food additive E319

SMILES: CC(C)(C)c1cc(O)ccc1O [TBHQ, Tert-butyl-hydroquinone]
- acceptable daily intake (ADI): 0.7 mg/kg of body weight
